What all share (format): biochemical
Test [1] relates to Recombinant S1P Receptors. Put plainly: [γ-35S]GTP binding at recombinant S1P receptors (statements covering all receptors tested). Conditions: at each receptor. As to the method:
The same results were obtained regardless of whether the recombinant receptor used exogenous G proteins (HEK293T cells) or endogenous G proteins (RH7777 cells). […] The Sf9 cell and HEK293T cell membranes gave similar results. Furthermore, the activities measured in the broken cell assay predicted the responses seen in whole cell assays.
(§1) After incubating for 30 min at 30° C., bound radionuclide was separated from free by filtration through Whatman GF/C paper using a Brandel Cell Harvester (Gaithersburg, Md.).
(§2) Assay of cAMP accumulation was performed as described previously (See Im et al., J. Biol. Chem. 275, 14281-14286 (2000), the disclosure of which is incorporated herein). Assays were conducted on populations of 5×10^5 cells stimulated with 1 uM forskolin in the presence of the phosphodiesterase inhibitor […] (IBMX, 1 mM) for 15 min. cAMP was measured by automated radioimmunoassay. The GTPγS studies were performed using zebrafish S1P1 overexpressed rat RH-7777 and human hS1P1, hS1P2, hS1P3 and hS1P5 overexpressed human HEK293 cells.

Test [2] has as its target T1, hS1P1 (Homo sapiens, UniProt P21453).
T1 construct: expressed in transfected cells; host or cells: HEK293T cells, transient transfection
In words: [γ-35S]GTP binding, HEK293T cell membranes with S1P1 receptor. The procedure: (§3) Human or mouse S1P5 DNA was mixed with an equal amount of DNA encoding a rat Gi2R protein as well as DNAs encoding cow β1 and γ2 proteins and used to transfect monolayers of HEK293T cells using the calcium phosphate precipitate method. After 60 h, cells were harvested, and microsomes were prepared, aliquoted, and stored at −70° C. until use.
as §1, §2
(§4) An additional series of compounds was tested using the GTPCS binding assay described in Example 2 and in Im et al., J. Biol. Chem. 275, 14281-14286 (2000), the disclosure of which is incorporated herein).

Test [3] has as its target T2, hS1P3 (Homo sapiens, UniProt Q99500).
T2 construct: expressed in transfected cells; host or cells: HEK293T cells, transient transfection
Put plainly: [γ-35S]GTP binding, HEK293T cell membranes with S1P3 receptor. As to the method:
as §3, §1, §2, §4

T2 sequence (Q99500 whole entry): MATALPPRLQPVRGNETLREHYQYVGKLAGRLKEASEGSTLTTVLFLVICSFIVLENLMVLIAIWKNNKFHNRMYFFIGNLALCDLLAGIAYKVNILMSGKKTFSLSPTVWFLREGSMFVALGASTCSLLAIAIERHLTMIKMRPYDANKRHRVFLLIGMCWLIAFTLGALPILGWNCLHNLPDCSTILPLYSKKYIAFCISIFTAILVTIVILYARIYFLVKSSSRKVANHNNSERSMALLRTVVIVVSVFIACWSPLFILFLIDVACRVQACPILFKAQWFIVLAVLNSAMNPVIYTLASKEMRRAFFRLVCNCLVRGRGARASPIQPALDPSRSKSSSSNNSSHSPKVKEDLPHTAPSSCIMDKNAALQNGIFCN
T1 sequence (P21453 whole entry): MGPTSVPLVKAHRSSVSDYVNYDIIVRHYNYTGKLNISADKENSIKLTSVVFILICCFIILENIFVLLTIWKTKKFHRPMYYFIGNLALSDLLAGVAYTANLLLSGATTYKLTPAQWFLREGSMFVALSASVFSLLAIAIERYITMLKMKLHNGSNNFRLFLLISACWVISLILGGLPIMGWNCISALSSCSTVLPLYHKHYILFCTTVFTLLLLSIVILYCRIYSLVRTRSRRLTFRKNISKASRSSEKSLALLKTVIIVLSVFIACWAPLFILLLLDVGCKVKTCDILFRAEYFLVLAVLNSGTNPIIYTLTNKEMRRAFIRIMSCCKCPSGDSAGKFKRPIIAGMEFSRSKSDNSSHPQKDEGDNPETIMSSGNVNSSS

With `CCCCCCCCCCCCC/C=C/[C@@H](O)[C@@H](N)COP(=O)(O)O` [Compound S1P, Sphingosine-1-phosphate], in test [1], the “increase of GTPγS binding” value is reported as 2-5 fold.

As for `CCCCCCCCCCCCCCOC(=O)[C@@H](N)COP(=O)(O)O` [VPC22053], the “less potent than enantiomer VPC22135 at S1P1 receptor” value in test [2] is on record as “more than 1 log order”. For the same compound, in test [3], the “less potent than enantiomer VPC22135 at S1P3 receptor” value is reported as “more than 1 log order”. In the case of `CCCCCCCCCCCCCCNC(=O)[C@H](N)COP(=O)(O)O` [VPC22135], the “potency compared with S1P at human S1P1 receptor” value in test [2] (result in words) is “approached the potency of S1P”. Besides, the “potency compared with S1P at human S1P3 receptor” value in test [3] (result in words) is given as “approached the potency of S1P”. For `CCCCCCCCc1cccc(NC(=O)[C@H](N)COP(=O)(O)O)c1` [VPC23019], the “antagonism at S1P1” value in test [2] (result in words, competition with S1P) is on record as “antagonism”. Besides, the “type of activity at the S1P3 receptor (inverse agonism / agonism)” value (“type … (inverse agonism / agonism)” for short) in test [3] (result in words) was “inverse agonists”. As to `CCCCCCc1cccc(NC(=O)[C@H](N)COP(=O)(O)O)c1` [VPC23031], in test [3] (result in words), the “type … (inverse agonism / agonism)” value was “inverse agonists”.

For the compound `CCCCCCCCCCc1cccc(NC(=O)[C@H](N)COP(=O)(O)O)c1` [VPC23069], in test [3] (result in words), the “type … (inverse agonism / agonism)” value is listed as “agonism”. As for `CCCCCCCCCc1cccc(NC(=O)[C@H](N)COP(=O)(O)O)c1` [VPC23079], the “type … (inverse agonism / agonism)” value in test [3] (result in words) is “agonism”. Consider `CCCCCCCCc1ccccc1NC(=O)[C@H](N)COP(=O)(O)O` [VPC23089], for which the “type … (inverse agonism / agonism)” value in test [3] (result in words) is “inverse agonists”.

The values above are taken from patent US7560477B2, “Compounds active in sphingosine 1-phosphate signaling” (University of Virginia Patent Foundation, priority 2002, dated 2009).
